According to patent US4965280A, “Antifungal carbinols” (E. I. Du Pont de Nemours and Company, priority 1989, dated 1990):
In brackets after ≈: the same amount, converted by molar mass. Where two headings read alike, the source gives them in different places.

Legend:
[1] = test system: Candida albicans ATCC 11651; test: In vivo systemic Candida infection in mice, primary assay; set-up: species or system Candida albicans; CF-1 female mice; settings: Candida albicans, 150 mg/kg per day, read-out: % Survival
How it was run: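 CF-1 female mice (20 g, 10 per group) were infected IV with 0.2 ml of 1×10^7/ml C. albicans ATCC 11651, then given test compound subcutaneously at 50 or 150 mg/kg/day at 1 and 6 h post-infection and once daily for three more days. Survival was followed for 21 days against infected untreated mice; ≥70% protection at 14 days was scored active.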

[2] = test system: Venturia inaequalis; test: Example A apple scab; type: in vivo; settings: 100 PPM, read-out: disease control rating, Ex. A
How it was run: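 Test compounds were dissolved in acetone (6% of final volume) and suspended at 100 or 20 ppm in purified water containing 250 ppm of the surfactant TREM 014 (polyhydric alcohol esters). Apple seedlings were sprayed with this suspension to the point of run-off.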

[3] = test system: Cercosporidium personatum; test: Example B Peanut Late Leafspot; type: in vivo; settings: Nothopassalora personata; 100 PPM; read-out: disease control rating, Ex. B
How it was run: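 Compounds were dissolved in acetone (6% of final volume) and suspended at 100 or 20 ppm in purified water containing 250 ppm TREM 014 surfactant (polyhydric alcohol esters). The suspension was sprayed to run-off on peanut seedlings.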

[4] = test system: Botrytis cinerea; test: Example C bean grey mold; type: in vivo; settings: Botrytis cinerea, 24 h, 100 PPM; read-out: disease control rating, Ex. C
How it was run: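 Test compounds were taken up in acetone (6% of final volume) and suspended at 100 or 20 ppm in purified water containing 250 ppm TREM 014 surfactant (polyhydric alcohol esters). Broad bean seedlings were sprayed with this suspension until run-off.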

[5] = test system: Erysiphe graminis f. sp. tritici; test: Example D wheat powdery mildew; type: in vivo; settings: Blumeria graminis, 144 h; 100 PPM; read-out: disease control rating, Ex. D
How it was run: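 Compounds were dissolved in acetone (6% of final volume), then suspended at 100 or 20 ppm in purified water containing 250 ppm TREM 014 surfactant. Wheat seedlings were sprayed with this suspension to run-off.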

[6] = test system: Pyricularia oryzae; test: whole plant or invertebrate; type: in vivo; settings: Pyricularia oryzae, 120 h, read-out: disease control rating, Ex. E, 100 PPM
[7] = test system: Rhizoctonia solani; test: Example F rice sheath blight; type: in vivo; settings: Rhizoctonia solani, 144 h, 100 PPM; read-out: disease control rating, Ex. F
How it was run: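 Compounds, dissolved in acetone at 6% of final volume, were suspended at 100 or 20 ppm in purified water with 250 ppm polyhydric alcohol ester surfactant (TREM 014). Rice seedlings were sprayed with this suspension to run-off.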

[8] = test system: Puccinia recondita; test: Example G wheat leaf rust; type: in vivo; settings: 100 PPM, read-out: disease control rating, Ex. G
[9] = test system: Phytophthora infestans; test: whole plant or invertebrate; type: in vivo; settings: Phytophthora infestans, in Solanum lycopersicum, read-out: disease control rating, Ex. H, 100 PPM
[10] = test system: Plasmorpara viticola; test: Example I grape downy mildew; type: in vivo; settings: read-out: disease control rating, Ex. I
How it was run: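 Compounds were dissolved in acetone (6% of final volume) and suspended at 100 or 20 ppm in purified water with 250 ppm TREM 014 surfactant (polyhydric alcohol esters). Grape seedlings were sprayed with this suspension to run-off.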

[11] = test system: Pythium aphanadermatum; test: Example J cucumber damping off; type: in vivo; settings: Pythium, 336 h; 5 kg/ha; read-out: disease control rating, Ex. J
How it was run: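 Seeds and soil were inoculated with a mix of sand, cereal and Pythium aphanadermatum mycelium, the fungus responsible for cucumber damping off. They were kept in a growth chamber at 30° C. for 14 days, and disease was then rated to assess control.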

[12] = test system: Rhizoctonia solani; test: Example K cotton blight; type: in vivo; settings: 336 h, 5 kg/ha, read-out: disease control rating, Ex. K
Protocol: […] Seeds and soil were then inoculated with a mixture of sand, cereal and mycelium of the fungus Rhizoctonia solani, causal agent of cotton blight, and incubated in a growth chamber at 30° C. for 14 days. Disease ratings were then made.

[13] = test system: Fusarium oxysporum f. sp. cucumerinum; test: Example L cucumber wilt; type: in vivo; settings: 336 h, 5 kg/ha, read-out: disease control rating, Ex. L
Protocol: […] Seeds and soil were then inoculated with a mixture of sand, cereal and mycelium of the fungus Fusarium oxysporum f. sp. cucumerinum, causal agent of cucumber wilt, and incubated in a growth chamber at 30° C. for 14 days. Disease ratings were then made.

[14] = test system: Sclerotium rolfsii; test: Example M southern blight; type: in vivo; settings: Agroathelia rolfsii, 336 h; 5 kg/ha; read-out: disease control rating, Ex. M
Protocol: […] Seeds and soil were then inoculated with a mixture of sand, cereal and mycelium of the fungus Sclerotium rolfsii, causal agent of sourthern blight, and incubated in a growth chamber at 30° C. for 14 days. Disease ratings were then made.

[15] = test system: Candida albicans ATCC 11651; test: In vitro antifungal MIC, microtiter broth dilution; settings: Candida albicans, ATCC11651, 24 h, read-out: MIC values, C. albicans, 30°, 24 hours
[16] = test system: Aspergillus fumigatus ATCC 28214; test: In vitro antifungal MIC, microtiter broth dilution; settings: Aspergillus fumigatus, ATCC28214, 24 h, read-out: MIC values, A. fumigatus, 30°, 24 hours

SMILES	responders at 150 mg/kg ([1]; ATCC11651, 168 h, day 7)	responders at 150 mg/kg ([1]; ATCC11651, 336 h, day 14)	responders at 150 mg/kg ([1]; ATCC11651, 504 h, day 21)	pest or weed control at 100 ppm [2]	pest or weed control at 100 ppm [3]	pest or weed control at 100 ppm [4]	pest or weed control at 100 ppm [5]	pest or weed control at 100 ppm [6]	pest or weed control at 100 ppm [7]	pest or weed control at 100 ppm [8]	pest or weed control at 100 ppm [9]	pest or weed control at 100 ppm [10]	pest or weed control at 5000 g/ha [11]	pest or weed control at 5000 g/ha [12]	pest or weed control at 5000 g/ha [13]	pest or weed control at 5000 g/ha [14]	MIC [15]	MIC [16]
C=C(c1ccc(C(F)(F)F)cc1)C(O)(Cn1cncn1)c1ccc(F)cc1 (stereo not drawn) [Example 65]	100%	70%	50%	34%	96%	94%	85%	30%	62%	100%	0%	0%	0%	0%	0%	0%	0.2 µg/mL (≈ 0.53 µM)	100 µg/mL (≈ 265 µM)
C=C(c1ccccc1)C(O)(Cn1ncnc1S)c1ccc(F)cc1 (stereo not drawn) [Example 1278]	0%	0%	0%	100%	100%	87%	85%	17%	36%	100%	0%	16%	0%	0%	0%	0%	≤ 0.4 µg/mL	> 100 µg/mL
C=C(CN(C)C)C(O)(Cn1cncn1)c1ccc(Cl)cc1Cl (stereo not drawn) [Example 453]	60%	40%	30%	55%	32%	75%	94%	0%	0%	100%	0%	0%	0%	0%	0%	0%	1.6 µg/mL (≈ 4.69 µM)	> 100 µg/mL
C=C(c1cccc2ccccc12)C(O)(Cn1cncn1)c1ccc(F)cc1 (stereo not drawn) [Example 208]	0%	0%	0%	84%	37%	83%	76%	4%	61%	97%	0%	74%	0%	0%	0%	0%	1.6 µg/mL (≈ 4.45 µM)	50 µg/mL (≈ 139 µM)
C=C(c1ccccc1Cl)C(O)(Cn1cncn1)c1ccc(Cl)cc1 (stereo not drawn) [Example 34]	100%	100%	100%	69%	100%	94%	60%	86%	16%	66%	0%	0%	0%	0%	0%	0%	0.03 µg/mL (≈ 0.0833 µM)	3.2 µg/mL (≈ 8.88 µM)
